From patent US5310938A, “Substituted arylpyrrole compounds” (American Cyanamid Company, priority 1993, dated 1994) come the findings set out here.

This assay deals with Caenorhabditis elegans. The assay is described as follows: Nematicidal activity against C. elegans (motility rating). Details: key: 9: complete kill; 8: no motility; 7: markedly reduced motility in approximately 95% of worms; 6: reduced motility; 5: slightly reduced motility; 0: normal motility, same as controls. The format is in vivo, C. elegans (Bristol strain). The note with it: read at 4 and 24 hours post-immersion. The method, then: Cultures of C. elegans (Bristol strain from J. Lewis) are maintained on E. coli lawns on NG Agar Plates at 20° C. New cultures are established weekly.
Nematodes for testing are washed from 4-5 day old cultures using Fresh Ascaris Ringers Solution (FARS). The worms are further washed with FARS,-containing gentamycin, to reduce bacterial contamination and centrifuged to separate worms from wash solution. This procedure is repeated three times. The washed worms are then added to C. brigassae Maintenance Medium (CbMM), from GIBCOa to which is added gentamycin (600 units/ml) and mycostatin (0.5 mg/ml).
Compounds are dissolved in acetone and made up to volume with equal parts of water. The final test concentration of each compound in the mixture is 150 ppm. The test material is micropipetted (25 ul) into a single well of a 96-well sterile tissue culture plate (COSTAR)^b and the solvent allowed to evaporate. These "treated" plates are used immediately or stored in a refrigerator without apparent adverse effects on the compounds.
A freshly prepared volume ([…]) of C. elegans in CbMM is micropipetted into each treated well and several control wells per plate. Culture plates are incubated at 20° C.
Observations for efficacy are made under a dissecting microscope at 4 and 24 hours post-immersion. Immediately prior to reading the plate, it is gently tapped to stimulate the movement of the worms. Activity is judged based on the drug effects on motility of the adults and larvae. […] Other factors indicating activity are easily noted such as death, rigor mortis, contraction, coiling, paralysis, abnormal twitching, reduced worm population in 48 hours and other deviation from normal behavior.
Day 0 Inoculate E. Coli-NG Agar Dish With 30-40
Day 4 Harvest New C. Elegans Population
Add C. Elegans (25-100 µL) To "Medicated"
Observe for Activity at 4 hours Post-
Day 5 Observe For Activity
As to `N#Cc1ccc(-c2[nH]c(Br)c(Br)c2C#N)cc1` [4,5-Dibromo-2-(P-cyanophenyl)-pyrrole-3-carbonitrile], the “Rating Against C. Elegans 150 ppm” value is 9.

In the case of `O=[N+]([O-])c1c(Cl)[nH]c(Cl)c1-c1ccc(Cl)c(Cl)c1` [2,5-Dichloro-3-(3,4-dichlorophenyl)-4-nitropyrrole], the “Rating Against C. Elegans 150 ppm” value came out at 9.

Take `CN(C)CCn1c(Cl)c(Cl)c(C#N)c1-c1ccc(Cl)c(Cl)c1` [4,5-Dichloro-2-(3,4-dichlorophenyl)-1-[2-(dimethylamino)ethyl]pyrrole-3-carbonitrile]: the “Rating Against C. Elegans 150 ppm” value was determined as 9.

Consider `N#Cc1c(Br)c(C#N)n(Cc2ccccc2)c1-c1ccc(Cl)cc1` [1-Benzyl-3-bromo-5-(P-chlorophenyl)pyrrole-2,4-dicarbonitrile], for which the “Rating Against C. Elegans 150 ppm” value is 9.

Turning to `N#Cc1[nH]c(-c2ccc(Cl)c(Cl)c2)c([N+](=O)[O-])c1Br` [3-Bromo-5-(3,4-dichlorophenyl)-4-nitropyrrole-2-carbonitrile], the “Rating Against C. Elegans 150 ppm” value was 9.

Regarding `N#Cc1[nH]ccc1-c1ccc(Cl)cc1` [3-(P-chlorophenyl)pyrrole-2-carbonitrile, 3-(p-chlorophenyl)-pyrrole-2-carbonitrile], the “Rating Against C. Elegans 150 ppm” value is on record as 9.

Take `N#Cc1c(Br)[nH]c(C(F)(F)F)c1-c1ccc(Cl)cc1` [2-Bromo-4-(P-chlorophenyl)-5-(trifluoromethyl)pyrrole-3-carbonitrile]: the “Rating Against C. Elegans 150 ppm” value worked out at 9.

Regarding “4,5-Dichloro-1-(hydromethyl)-2-(α,α,α-trifluoro-P-tolyl)”, the “Rating Against C. Elegans 150 ppm” value is given as 9.

`N#Cc1ccc(-c2[nH]c(Cl)c(Cl)c2C#N)cc1` [4,5-Dichloro-2-(P-cyanophenyl)-pyrrole-3-carbonitrile]: the “Rating Against C. Elegans 150 ppm” value was 9.

Regarding `N#Cc1c(-c2ccc(Cl)cc2)[nH]c(C(F)(F)F)c1C(F)(F)F` [2-(P-chlorophenyl)-4,5-bis(trifluoromethyl)pyrrole-3-carbonitrile], the “Rating Against C. Elegans 150 ppm” value is listed as 9.

In the case of `N#Cc1c(-c2ccc(Cl)c(Cl)c2)[nH]c([N+](=O)[O-])c1Br` [4-Bromo-2-(3,4-dichlorophenyl-5-nitropyrrole-3-carbonitrile], the “Rating Against C. Elegans 150 ppm” value is on record as 9.

For `CSCCn1c(Cl)c(Cl)c(C#N)c1-c1ccc(Cl)c(Cl)c1` [4,5-Dichloro-2-(3,4-dichlorophenyl)-1[2-(methylthio)ethyl]pyrrole-3-carbonitrile], the “Rating Against C. Elegans 150 ppm” value is 9.

As for `C=CCn1c(Cl)c(Cl)c(C#N)c1-c1ccc(Cl)c(Cl)c1` [1-Alkyl-4,5-dichloro-2-(3,4-dichlorophenyl)pyrrole-3-carbonitrile], the “Rating Against C. Elegans 150 ppm” value turned out to be 9.

As to `N#Cc1c[nH]c(-c2ccc(C(F)(F)F)cc2)c1` [5-(α,α,α-trifluoro-tolyl)-pyrrole-3-carbonitrile], the “Rating Against C. Elegans 150 ppm” value amounted to 9.

Take `N#Cc1c(-c2ccc(Cl)cc2)[nH]c(C(F)(F)F)c1Br` [4-Bromo-2-(p-chlorophenyl)-5-(trifluoromethyl)pyrrole-3-carbonitrile]: the “Rating Against C. Elegans 150 ppm” value was found to be 9.

In the case of `N#Cc1c[nH]c(C(F)(F)F)c1-c1ccccc1` [4-Phenyl-5-(trifluoromethyl)pyrrole-3-carbonitrile], the “Rating Against C. Elegans 150 ppm” value was 9.

For the compound `COCCn1c(Cl)c(Cl)c(C#N)c1-c1ccc(C(F)(F)F)cc1` [4,5-Dichloro-1-(methoxyethyl)-2-(α,α,α-trifluoro-P-tolyl)pyrrole-3-carbonitrile], the “Rating Against C. Elegans 150 ppm” value turned out to be 9.

As to `N#Cc1c(-c2ccc(Cl)c(Cl)c2)[nH]c(C(F)(F)F)c1Br` [4-Bromo-2-(3,4-dichlorophenyl)-5-(trifluoromethyl)pyrrole-3-carbonitrile], the “Rating Against C. Elegans 150 ppm” value was determined as 9.

Consider `FC(F)(F)c1[nH]ccc1-c1ccc(Cl)cc1` [3-(P-chlorophenyl)-2-(trifluoromethyl)pyrrole], for which the “Rating Against C. Elegans 150 ppm” value was 9.

On to `CCOCn1c(-c2ccc(C(F)(F)F)cc2)c(C#N)c(Br)c1C(F)(F)F` [4-Bromo-1-(ethoxymethyl)-5-(trifluoromethyl)-2-(α,α,α-trifluoro-P-tolyl)-pyrrole-3-carbonitrile], for which the “Rating Against C. Elegans 150 ppm” value is on record as 9.

Take `COCn1c(-c2ccc(Cl)cc2)c(C#N)c(Br)c1C(F)(F)F` [4-Bromo-2-(P-chlorophenyl)-1-(1-methoxymethyl)-5-(trifluoromethyl)pyrrole-3-carbonitrile]: the “Rating Against C. Elegans 150 ppm” value was found to be 9.

With `O=[N+]([O-])c1c[nH]cc1-c1ccccc1` [3-Nitro-4-phenylpyrrole], the “Rating Against C. Elegans 150 ppm” value came to 9.

In the case of `N#CCn1c(-c2ccc(Cl)cc2)c(C#N)c(Br)c1C(F)(F)F` [3-Bromo-5-(P-chlorophenyl)-4-cyano-2-(trifluoromethyl)-pyrrole-1-acetonitrile], the “Rating Against C. Elegans 150 ppm” value was 9.

For `O=[N+]([O-])c1c(-c2ccc(C(F)(F)F)cc2)[nH]c(Cl)c1Cl` [2,3-Dichloro-4-nitro-5-(α,α,α-Trifluoro-p-tolylpyrrole], the “Rating Against C. Elegans 150 ppm” value was found to be 9.

With `CS(=O)(=O)c1ccc(-c2[nH]c(Br)c(Br)c2C#N)cc1` [4,5-Dibromo-2-[P-(methylsulfonyl)phenyl]-pyrrole-3-carbonitrile], the “Rating Against C. Elegans 150 ppm” value came to 9.

Consider `O=[N+]([O-])c1c(-c2ccc(Br)cc2)[nH]c(Cl)c1Cl` [2-(P-bromophenyl)-4,5-dichloro-3-nitropyrrole], for which the “Rating Against C. Elegans 150 ppm” value is on record as 9.

Regarding `N#Cc1c(Br)c(Br)n(Cc2ccccc2)c1-c1ccc(C(F)(F)F)cc1` [1-Benzyl-4,5-dibromo-2-(α,α,α-trifluoro-p-tolyl)pyrrole-3-carbonitrile], the “Rating Against C. Elegans 150 ppm” value was found to be 9.

Consider `N#Cc1c(Br)[nH]c(-c2ccc(C(F)(F)F)cc2)c1Br` [2,4-Dibromo-5-(α,α,α-trifluoro-P-tolyl)pyrrole-3-carbonitrile], for which the “Rating Against C. Elegans 150 ppm” value amounted to 9.

For the compound `N#Cc1[nH]c(Br)c(-c2ccc(Cl)cc2)c1Br` [3,5-Dibromo-4-(p-chlorophenyl)pyrrole-2-carbonitrile], the “Rating Against C. Elegans 150 ppm” value turned out to be 9.

On to `O=[N+]([O-])c1cc([N+](=O)[O-])c(-c2ccc(Br)cc2)[nH]1` [2-(P-bromophenyl)-3,5-dimitropyrrole], for which the “Rating Against C. Elegans 150 ppm” value came out at 9.

With `N#Cc1[nH]c(-c2ccc(OC(F)(F)F)cc2)c(C#N)c1Br` [3-Bromo-5-[P-(trifluoromethoxy)phenyl]-pyrrole-2-4-dicarbonitrile], the “Rating Against C. Elegans 150 ppm” value is 9.

`O=[N+]([O-])c1c[nH]cc1-c1ccc(Cl)cc1` [3-(P-chlorophenyl)-4-nitro-pyrrole]: the “Rating Against C. Elegans 150 ppm” value is recorded as 9.

Turning to `N#Cc1c(-c2ccccc2Cl)[nH]c(Br)c1Br` [4,5-Dibromo-2-(0-chlorophenyl)-pyrrole-3-carbonitrile], the “Rating Against C. Elegans 150 ppm” value is 9.

Turning to `N#Cc1c(-c2ccc(Cl)cc2Cl)[nH]c(C(F)(F)F)c1Br` [4-Bromo-2-(2,4-dichlorophenyl)-5-(trifluoromethyl)pyrrole-3-carbonitrile], the “Rating Against C. Elegans 150 ppm” value is listed as 9.

With `N#Cc1c(-c2ccc([N+](=O)[O-])cc2)[nH]c(Br)c1Br` [4,5-Dibromo-2-(P-nitrophenyl)-pyrrole-3-carbonitrile], the “Rating Against C. Elegans 150 ppm” value stood at 9.

With `N#Cc1c(-c2ccc(C(F)(F)F)cc2)[nH]c(Cl)c1Cl` [4,5-Dichloro-2-(α,α,α-trifluoro-P-tolylpyrrole-3-carbonitrile], the “Rating Against C. Elegans 150 ppm” value came to 9.

For the compound `N#Cc1c(-c2ccc([N+](=O)[O-])cc2)[nH]c(Cl)c1Cl` [4,5-Dichloro-2-(P-nitrophenyl)-pyrrole-3-carbonitrile], the “Rating Against C. Elegans 150 ppm” value is 9.

Turning to `N#Cc1c(Br)[nH]c(C(F)(F)F)c1-c1ccccc1` [2-Bromo-4-phenyl-5-(trifluoromethyl)pyrrole-3-carbonitrile], the “Rating Against C. Elegans 150 ppm” value was determined as 9.

For `N#Cc1[nH]c(-c2ccc(Cl)c(Cl)c2)c(Br)c1Br` [3,4-dibromo-5-(3,4-dichlorophenyl)pyrrole-2-carbonitrile], the “Rating Against C. Elegans 150 ppm” value is on record as 9.

On to `CCOCn1c(-c2ccc(Cl)cc2Cl)c(C#N)c(Br)c1C(F)(F)F` [4-Bromo-2-(2,4-Dichlorophenyl)-1-(ethoxymethyl)-5-(trifluoromethyl)pyrrole-3-carbonitrile], for which the “Rating Against C. Elegans 150 ppm” value turned out to be 9.

In the case of `N#Cc1c(-c2ccc(C(F)(F)F)cc2)[nH]c(Br)c1Br` [4,5-Dibromo-2-(α,α,α-trifluoro-p-tolyl)pyrrole-3-carbonitrile], the “Rating Against C. Elegans 150 ppm” value is 9.

As to `O=[N+]([O-])c1c(-c2ccc(Cl)c(Cl)c2)[nH]c(Cl)c1Cl` [2,3-Dichloro-5-(3,4-dichlorophenyl)-4-nitropyrrole], the “Rating Against C. Elegans 150 ppm” value is 9.

On to `N#Cc1cc([N+](=O)[O-])[nH]c1-c1ccc(Cl)cc1` [2-(p-chlorophenyl)-5-nitropyrrole-3-carbonitrile], for which the “Rating Against C. Elegans 150 ppm” value is 9.

As for `N#Cc1cc([N+](=O)[O-])c(-c2ccc(Cl)c(Cl)c2)[nH]1` [5(3,4-Dichlorophenyl)-4-nitropyrrole-2-carbonitrile], the “Rating Against C. Elegans 150 ppm” value came out at 9.
